Laboratory results as given in ChEMBL document CHEMBL4229539, “Characterization of crystal water molecules in a high-affinity inhibitor and hematopoietic prostaglandin D synthase complex by interaction energy studies” (Bioorg Med Chem, 2018).
pKd: −log10 of the molar value.

Target: Hematopoietic prostaglandin D synthase (Homo sapiens, UniProt O60760)
Assay: Binding affinity to full length recombinant human N-terminal His6-tagged H-PGDS expressed in Escherichia coli BL21(DE3) by SPR analysis

Hematopoietic prostaglandin D synthase, sequence (O60760 whole entry): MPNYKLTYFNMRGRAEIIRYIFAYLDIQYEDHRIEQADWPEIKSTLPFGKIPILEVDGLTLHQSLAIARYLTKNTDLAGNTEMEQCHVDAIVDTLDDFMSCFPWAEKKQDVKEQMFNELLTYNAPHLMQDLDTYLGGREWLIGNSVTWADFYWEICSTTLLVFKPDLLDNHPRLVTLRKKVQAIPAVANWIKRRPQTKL

pKd	Structure (SMILES)
9.85	O=C(Nc1ccc(N2CCCC2=O)cc1)c1cnc(-c2ccccn2)nc1
9.43	O=C(Nc1ccc(N2CCC(C(=O)N3CCOCC3)CC2)cc1)c1cnc(Oc2ccccc2)nc1
